Where a name gives a salt, the structure may show the parent alone.
Assays:
[1] = biological target: T1, Human vitronectin receptor (αv β3) (Homo sapiens, UniProt P05106+P06756); assay: Vitronectin adhesion assay (solid phase receptor assay, αvβ3); assay type: binding; conditions: inhibition of binding of biotinylated human vitronectin (1 nM) to purified receptor; Table I; read-out: AvB3 IC50
T1 construct: Human vitronectin receptor (αv β3) was purified from human placenta; from tissue; host or cells: human placenta
Procedure: (§1) The activity of the compounds of the present invention was tested in the following assays.
Human vitronectin receptor (αv β3) was purified from human placenta as previously described [Pytela et al., Methods in Enzymology, 144:475-489 (1987)]. Human vitronectin was purified from fresh frozen plasma as previously described [Yatohgo et al., Cell Structure and Function, 13:281-292 (1988)]. Biotinylated human vitronectin was prepared by coupling NHS-biotin from Pierce Chemical Company (Rockford, Ill.) to purified vitronectin as previously described [Charo et al., J. Biol. Chem., 266(3):1415-1421 (1991)]. Assay buffer, OPD substrate tablets, and RIA grade BSA were obtained from Sigma (St. Louis, Mo.). Anti-biotin antibody was obtained from Calbiochem (La Jolla, Calif.). Linbro microtiter plates were obtained from Flow Labs (McLean, Va.). ADP reagent was obtained from Sigma (St. Louis, Mo.).
(§2) Solid Phase Receptor Assays
This assay was essentially the same as previously reported [Niiya et al., Blood, 70:475-483 (1987)]. The purified human vitronectin receptor (αv β3) was diluted from stock solutions to […] in Tris-buffered saline containing 1.0 mM Ca^++, Mg^++, and Mn^++, pH 7.4 (TBS^+++). The diluted receptor was immediately transferred to Linbro microtiter plates at 100 μL/well (100 ng receptor/well). The plates were sealed and incubated overnight at 4° C. to allow the receptor to bind to the wells. All remaining steps were at room temperature. The assay plates were emptied and 200 μL, of 1% RIA grade BSA in TBS^+++ (TBS^+++ /BSA) were added to block exposed plastic surfaces. Following a 2 hour incubation, the assay plates were washed with TBS^+++ using a 96 well plate washer. Logarithmic serial dilution of the test compound and controls were made starting at a stock concentration of 2 mM and using 2 nM biotinylated vitronectin in TBS^+++ /BSA as the diluent. This premixing of labeled ligand with test (or control) ligand, and subsequent transfer of 50 μL aliquots to the assay plate was carried out with a CETUS Propette robot; the final concentration of the labeled ligand was 1 nM and the highest concentration of test compound was 1.0×10^-4 M. The competition occurred for two hours after which all wells were washed with a plate washer as before. Affinity purified horseradish peroxidase labeled goat anti-biotin antibody was diluted 1:3000 in TBS^+++ /BSA and 125 μL were added to each well. After 30 minutes, the plates were washed and incubated with OPD/H2 O2 substrate in 100 mM/L Citrate buffer, pH 5.0. The plate was read with a microtiter plate reader at a wavelength of 450 nm and when the maximum-binding control wells reached an absorbance of about 1.0, the final A450 were recorded for analysis. The data were analyzed using a macro written for use with the EXCEL™ spreadsheet program. The mean, standard deviation, and % CV were determined for duplicate concentrations. The mean A450 values were normalized to the mean of four maximum-binding controls (no competitor added) (B-MAX). The normalized values were subjected to a four parameter curve fit algorithm [Rodbard et al., Int.

[2] = biological target: T2, Human fibrinogen receptor (αIIb β3) (Homo sapiens, UniProt P05106+P08514); assay: Purified IIb/IIIa receptor assay (solid phase receptor assay); conditions: inhibition of binding of biotinylated human vitronectin (1 nM) to purified receptor; Table I
T2 construct: Human fibrinogen receptor (αIIb β3) was purified from outdated platelets; from tissue; host or cells: human outdated platelets
Procedure: as §1
Human fibrinogen receptor (αIIb β3) was purified from outdated platelets. (Pytela, R., Pierschbacher, M. D., Argraves, S., Suzuki, S., and Rouslahti, E. "Arginine-Glycine-Aspartic acid adhesion receptors", Methods in Enzymology 144(1987):475-489.) Human vitronectin was purified from fresh frozen plasma as described in Yatohgo, T., Izumi, M., Kashiwagi, H., and Hayashi, M., "Novel purification of vitronectin from human plasma by heparin affinity chromatography," Cell Structure and Function 13(1988):281-292. Biotinylated human vitronectin was prepared by coupling NHS-biotin from Pierce Chemical Company (Rockford, Ill.) to purified vitronectin as previously described. (Charo, I. F., Nannizzi, L., Phillips, D. R., Hsu, M. A., Scarborough, R. M., "Inhibition of fibrinogen binding to GP IIb/IIIa by a GP IIIa peptide", J. Biol. Chem. 266(3) (1991): 1415-1421.) Assay buffer, OPD substrate tablets, and RIA grade BSA were obtained from Sigma (St. Louis, Mo.). Anti-biotin antibody was obtained from Calbiochem (La Jolla, Calif.). Linbro microtiter plates were obtained from Flow Labs (McLean, Va.). ADP reagent was obtained from Sigma (St. Louis, Mo.).
as §2
This assay is essentially the same reported in Niiya, K., Hodson, E., Bader, R., Byers-Ward, V. Koziol, J. A., Plow, E. F. and Ruggeri, Z. M., "Increased surface expression of the membrane glycoprotein IIb/IIIa complex induced by platelet activation: Relationships to the binding of fibrinogen and platelet aggregation", Blood 70 (1987):475-483. The purified human fibrinogen receptor (αIIb β3) was diluted from stock solutions to 1.0 μg/mL in Tris-buffered saline containing 1.0 mM Ca^++, Mg^++, and Mn^++, pH 7.4 (TBS^+++). The diluted receptor was immediately transferred to Linbro microtiter plates at 100 μL/well (100 ng receptor/well). The plates were sealed and incubated overnight at 4° C. to allow the receptor to bind to the wells. All remaining steps were at room temperature. The assay plates were emptied and 200 μL of 1% RIA grade BSA in TBS^+++ (TBS^+++ /BSA) were added to block exposed plastic surfaces. Following a 2 hour incubation, the assay plates were washed with TBS^+++ using a 96 well plate washer. Logarithmic serial dilution of the test compound and controls were made starting at a stock concentration of 2 mM and using 2 nM biotinylated vitronectin in TBS^+++ /BSA as the diluent. This premixing of labeled ligand with test (or control) ligand, and subsequent transfer of 50 μL aliquots to the assay plate was carried out with a CETUS Propette robot; the final concentration of the labeled ligand was 1 nM and the highest concentration of test compound was 1.0×10^-4 M. The competition occurred for two hours after which all wells were washed with a plate washer as before. Affinity purified horseradish peroxidase labeled goat anti-biotin antibody was diluted 1:3000 in TBS^+++ /BSA and 125 μL were added to each well. After 30 minutes, the plates were washed and incubated with […]/H2 O2 substrate in 100 mM/L citrate buffer, pH 5.0. The plate was read with a microtiter plate reader at a wavelength of 450 nm and when the maximum-binding control wells reached an absorbance of about 1.0, the final A450 were recorded for analysis. The data were analyzed using a macro written for use with the EXCEL™ spreadsheet program. The mean, standard deviation, and % CV were determined for duplicate concentrations. The mean A450 values were normalized to the mean of four maximum-binding controls (no competitor added) (B-MAX). The normalized values were subjected to a four parameter curve fit algorithm, [Robard et al., Int.

T2 sequence (P08514 32-887 limits assumed): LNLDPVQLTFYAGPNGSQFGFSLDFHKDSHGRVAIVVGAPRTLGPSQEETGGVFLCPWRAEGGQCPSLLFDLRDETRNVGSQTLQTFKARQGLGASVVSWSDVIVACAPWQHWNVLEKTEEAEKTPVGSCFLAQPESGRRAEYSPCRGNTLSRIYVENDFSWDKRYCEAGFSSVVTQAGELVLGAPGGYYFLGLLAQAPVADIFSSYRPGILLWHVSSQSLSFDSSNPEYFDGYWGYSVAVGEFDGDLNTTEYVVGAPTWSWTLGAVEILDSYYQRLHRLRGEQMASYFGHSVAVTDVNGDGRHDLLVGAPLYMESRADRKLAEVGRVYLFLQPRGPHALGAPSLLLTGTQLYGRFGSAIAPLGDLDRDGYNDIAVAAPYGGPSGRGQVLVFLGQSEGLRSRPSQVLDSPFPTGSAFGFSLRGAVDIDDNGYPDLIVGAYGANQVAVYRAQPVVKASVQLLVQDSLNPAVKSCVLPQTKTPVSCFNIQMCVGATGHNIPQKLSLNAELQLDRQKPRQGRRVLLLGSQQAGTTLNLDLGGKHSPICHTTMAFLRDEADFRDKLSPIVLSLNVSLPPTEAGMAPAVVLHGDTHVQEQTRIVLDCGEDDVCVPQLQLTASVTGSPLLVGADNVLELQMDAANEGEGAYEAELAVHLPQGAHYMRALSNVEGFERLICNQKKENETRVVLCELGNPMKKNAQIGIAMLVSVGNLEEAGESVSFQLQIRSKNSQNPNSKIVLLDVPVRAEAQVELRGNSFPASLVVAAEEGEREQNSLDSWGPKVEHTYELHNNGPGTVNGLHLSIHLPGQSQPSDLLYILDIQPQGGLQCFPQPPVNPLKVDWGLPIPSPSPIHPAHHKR
T2 sequence (P08514 891-1039 limits assumed): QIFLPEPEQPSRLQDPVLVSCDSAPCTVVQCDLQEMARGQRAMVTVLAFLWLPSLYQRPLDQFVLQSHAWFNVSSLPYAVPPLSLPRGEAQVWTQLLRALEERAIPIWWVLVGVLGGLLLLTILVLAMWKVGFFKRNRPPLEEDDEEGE
T2 sequence (P05106 27-788): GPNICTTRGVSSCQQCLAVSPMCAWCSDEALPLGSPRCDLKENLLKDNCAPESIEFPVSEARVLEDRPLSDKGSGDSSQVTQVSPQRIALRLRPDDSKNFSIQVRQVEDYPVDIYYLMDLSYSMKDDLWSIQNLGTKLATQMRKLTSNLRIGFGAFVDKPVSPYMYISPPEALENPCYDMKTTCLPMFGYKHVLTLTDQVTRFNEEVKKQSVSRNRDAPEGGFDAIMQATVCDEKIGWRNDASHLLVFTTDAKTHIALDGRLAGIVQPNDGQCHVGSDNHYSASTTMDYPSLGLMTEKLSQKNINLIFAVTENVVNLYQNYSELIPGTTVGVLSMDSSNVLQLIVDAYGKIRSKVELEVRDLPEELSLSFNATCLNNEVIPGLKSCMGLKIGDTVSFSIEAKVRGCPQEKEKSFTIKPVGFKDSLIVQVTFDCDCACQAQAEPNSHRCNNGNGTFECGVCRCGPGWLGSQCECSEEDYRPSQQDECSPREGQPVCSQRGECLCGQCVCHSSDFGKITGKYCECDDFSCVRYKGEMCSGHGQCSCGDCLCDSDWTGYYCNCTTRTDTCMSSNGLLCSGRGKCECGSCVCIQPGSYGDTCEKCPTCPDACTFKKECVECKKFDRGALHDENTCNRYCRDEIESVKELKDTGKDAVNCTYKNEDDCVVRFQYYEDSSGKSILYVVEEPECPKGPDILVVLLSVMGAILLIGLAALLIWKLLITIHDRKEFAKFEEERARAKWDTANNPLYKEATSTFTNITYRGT
T1 sequence (P06756 31-889 limits assumed): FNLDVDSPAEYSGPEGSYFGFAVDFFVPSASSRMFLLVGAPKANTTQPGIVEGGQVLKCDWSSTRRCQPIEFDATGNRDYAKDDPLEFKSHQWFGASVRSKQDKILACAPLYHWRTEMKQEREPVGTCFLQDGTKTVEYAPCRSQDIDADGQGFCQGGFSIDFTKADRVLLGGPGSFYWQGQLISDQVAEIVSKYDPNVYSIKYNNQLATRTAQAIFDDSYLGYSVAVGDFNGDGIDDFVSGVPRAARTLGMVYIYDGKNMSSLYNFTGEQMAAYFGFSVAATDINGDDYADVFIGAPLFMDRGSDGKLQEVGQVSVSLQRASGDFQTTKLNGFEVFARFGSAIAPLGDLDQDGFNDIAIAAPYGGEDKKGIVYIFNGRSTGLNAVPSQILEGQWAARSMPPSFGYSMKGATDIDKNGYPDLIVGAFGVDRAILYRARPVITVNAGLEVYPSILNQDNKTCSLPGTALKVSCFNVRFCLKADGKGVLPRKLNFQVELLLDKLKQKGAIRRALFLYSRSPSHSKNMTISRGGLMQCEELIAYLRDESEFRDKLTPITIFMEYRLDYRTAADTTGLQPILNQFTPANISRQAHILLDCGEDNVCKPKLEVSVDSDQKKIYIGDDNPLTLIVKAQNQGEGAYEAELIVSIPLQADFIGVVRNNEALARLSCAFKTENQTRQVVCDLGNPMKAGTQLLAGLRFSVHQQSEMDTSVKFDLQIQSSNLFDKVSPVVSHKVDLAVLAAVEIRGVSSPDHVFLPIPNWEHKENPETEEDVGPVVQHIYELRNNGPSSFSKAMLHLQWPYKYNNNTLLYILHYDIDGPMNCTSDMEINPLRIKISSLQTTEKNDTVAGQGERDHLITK
T1 sequence (P06756 891-1048 limits assumed): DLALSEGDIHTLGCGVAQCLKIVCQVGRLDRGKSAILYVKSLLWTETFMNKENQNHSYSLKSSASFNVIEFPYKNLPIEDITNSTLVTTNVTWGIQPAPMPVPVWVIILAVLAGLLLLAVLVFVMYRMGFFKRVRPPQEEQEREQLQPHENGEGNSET
T1 sequence (P05106 27-788): as the sequence (P05106 27-788) above

SMILES | IC50 [1] [nM] | IC50 [2] [nM]
CCc1cc(/C=C/C(=O)O)ccc1NC(=O)c1cccc(NC2=NCCCN2)c1 [Example 19, 3-[3-ethyl-4-[[[3-[(1,4,5,6-tetrahydropyrimidin-2-yl)amino]phenyl]carbonyl]amino]phenyl]propenoic acid, trifluoroacetate salt] | 0.53 | 439
CCc1cc(/C=C/C(=O)O)ccc1NC(=O)c1cccc(NC2=NCCN2)c1 [Example 21, 3-[4-[[[3-[(4,5-dihydro-1H-imidazol-2-yl)amino]-phenyl]carbonyl]amino]-3-ethylphenyl]propenoic acid, trifluoroacetate salt] | 0.49 | 125
O=C(O)/C=C/c1ccc(NC(=O)c2cccc(NC3=NCCCN3)c2)c(Cl)c1 [Example 22, 3-[3-chloro-4-[[[3-[(1,4,5,6-tetrahydropyrimidin-2-yl)amino]phenyl]carbonyl]amino]phenyl]propenoic acid, trifluoroacetate salt] | 0.48 | 234
O=C(O)/C=C/c1ccc(NC(=O)c2cccc(NC3=NCCN3)c2)c(Cl)c1 [Example 23, 3-[3-chloro-4-[[[3-[(4,5-dihydro-1H-imidazol-2-yl)amino]-phenyl]carbonyl]amino]phenyl]-2E-propenoic acid, trifluoroacetate salt] | 0.31 | 80.3
Cc1cc(/C=C/C(=O)O)cc(C)c1NC(=O)c1cccc(NC2=NCCCN2)c1 [Example 24, 3-[3,5-dimethyl-4-[[[3-[(1,4,5,6-tetrahydropyrimidin-2-yl)amino]phenyl]carbonyl]amino]phenyl]-2E-propenoic acid, bis(trifluoroacetate salt)] | 4.93 | 8270
Cc1cc(/C=C/C(=O)O)cc(C)c1NC(=O)c1cccc(NC2=NCCN2)c1 [Example 25, 3-[4-[[[3-[(4,5-dihydroimidazol-2-yl)amino]-phenyl]carbonyl]amino]-3,5-dimethylphenyl]-2E-propenoic acid, trifluoroacetate salt] | 2.82 | 1830
Cc1cc(/C=C/C(=O)O)cc(C)c1NC(=O)c1cccc(NC(N)=O)c1 [Example 27, 3-[4-[[[3-[(aminocarbonyl)amino]phenyl]carbonyl]-amino]-3,5-dimethylphenyl]propenoic acid, trifluoroacetate salt] | 204 | > 100000
N=C(N)Nc1cccc(C(=O)Nc2cc(Cl)c(/C=C/C(=O)O)c(Cl)c2)c1 [Example 29, 3-[4-[[[3-[(aminoiminomethyl)amino]phenyl]carbonyl]-amino]-2,6-dichlorophenyl]propenoic acid, dihydrochloride dihydrate] | 1830 | 25400
COc1cc(NC(=O)c2cccc(NC(=N)N)c2)ccc1/C=C/C(=O)O [Example 31, 3-[4-[[[3-(aminoiminomethyl)amino]phenyl]carbonyl]-amino]-2-methoxyphenyl]propenoic acid, trifluoroacetate salt] | 9.66 | 69.1
Cc1cc(NC(=O)c2cccc(NC(=N)N)c2)ccc1/C=C/C(=O)O [Example 33, 3-[4-[[[3-[(aminoiminomethyl)amino]phenyl]carbonyl]-amino]-2-methylphenyl]propenoic acid, trifluoroacetate salt] | 73.3 | 121
N=C(N)Nc1cccc(C(=O)Nc2ccc(/C=C/C(=O)O)c(C(F)(F)F)c2)c1 [Example 35, trifluoroacetate salt] | 122 | 152
N=C(N)Nc1cccc(C(=O)Nc2ccc(/C=C/C(=O)O)c(C(=O)O)c2)c1 [Example 36, 5-[[[3-[(aminoiminomethyl)amino]phenyl]carbonyl]amino]-2-(2-carboxyethenyl)benzoic acid, trifluoroacetate salt] | 1.23 | 9.06
COC(=O)c1cc(NC(=O)c2cccc(NC(=N)N)c2)ccc1/C=C/C(=O)O [Example 37, methyl 5-[[[3-[(aminoiminomethyl)amino]phenyl]carbonyl]amino]-2-(2-carboxyethenyl)benzoate, trifluoroacetate salt] | 32.3 | 80
O=C(O)/C=C/c1ccc(NC(=O)c2cccc(NC3=NCCCN3)c2)cc1C(=O)O [Example 40A, 2-(2-carboxyethenyl)-5-[[[3-[(1,4,5,6-tetrahydropyrimidin-2-yl)amino]phenyl]carbonyl]amino]benzoic acid, trifluoroacetate salt] | 0.45 | 97.2
COC(=O)c1cc(NC(=O)c2cccc(NC3=NCCCN3)c2)ccc1/C=C/C(=O)O [Example 40B, methyl 2-(2-carboxyethenyl)-5-[[[3-[(1,4,5,6-tetrahydropyrimidin-2-yl)amino]phenyl]carbonyl]amino]benzoate, trifluoroacetate salt] | 5.71 | 817
COC(=O)/C=C/c1ccc(NC(=O)c2cccc(NC3=NCCCN3)c2)cc1C(=O)O [Example 40C, 2-[2-(methoxycarbonyl)ethenyl]-5-[[[3-[(1,4,5,6-tetrahydropyrimidin-2-yl)amino]phenyl]carbonyl]amino]benzoic acid, trifluoroacetate salt] | 176 | 20400
